The target in assay [1] is T1, hα2A receptor (Homo sapiens, UniProt P08913).
T1 construct: expressed in transfected cells; host or cells: CHO cells
T1 sequence (P08913 1-465): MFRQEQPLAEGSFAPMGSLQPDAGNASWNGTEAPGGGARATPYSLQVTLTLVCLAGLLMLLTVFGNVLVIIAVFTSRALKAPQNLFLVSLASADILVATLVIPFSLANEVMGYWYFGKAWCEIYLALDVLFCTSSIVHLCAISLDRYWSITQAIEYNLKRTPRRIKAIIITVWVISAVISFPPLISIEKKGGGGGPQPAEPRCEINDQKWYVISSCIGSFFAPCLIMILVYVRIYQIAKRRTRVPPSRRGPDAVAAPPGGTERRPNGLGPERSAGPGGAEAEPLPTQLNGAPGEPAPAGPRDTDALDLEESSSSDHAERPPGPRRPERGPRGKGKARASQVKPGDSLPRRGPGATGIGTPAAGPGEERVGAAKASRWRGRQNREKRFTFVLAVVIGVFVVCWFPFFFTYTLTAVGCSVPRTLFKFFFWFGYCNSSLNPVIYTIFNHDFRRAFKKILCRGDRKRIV
The experiment in a line: Radioligand binding experiment for hα2A receptor ([3H]-raulwolscine, CHO cell membranes). The note with it: [3H]-raulwolscine 1 nM, membranes of CHO cells transfected with human α2A receptor; read-out: pIC50 hα2A (converted). The protocol: (§1) The interaction of the compounds according to Formula (I) with hα2-receptors and h5-HT-transporters was assessed in in vitro radioligand binding experiments. In general, a low concentration of a radioligand with a high binding affinity for a particular receptor or transporter is incubated with a sample of a tissue preparation enriched in a particular receptor or transporter or with a preparation of cells expressing cloned human receptors in a buffered medium. During the incubation, the radioligand binds to the receptor or transporter. When equilibrium of binding is reached, the receptor bound radioactivity is separated from the non-bound radioactivity, and the receptor- or transporter-bound activity is counted. The interaction of the test compounds with the receptor is assessed in competition binding experiments. Various concentrations of the test compound are added to the incubation mixture containing the receptor- or transporter preparation and the radioligand. The test compound in proportion to its binding affinity and its concentration inhibits binding of the radioligand. The radioligand used for hα2A, hα2B and hα2C receptor binding was [^3H]-raulwolscine and for the h5-HT transporter was [^3H]paroxetine.
(§2) CHO cells, stabile transfected with human adrenergic-α2A-, —α2B or α2C receptor cDNA, were cultured in Dulbecco's Modified Eagle's Medium (DMEM)/Nutrient mixture Ham's F12 (ratio 1:1)(Gibco, Gent-Belgium) supplemented with 10% heat inactivated fetal calf serum (Life Technologies, Merelbeke-Belgium) and antibiotics (100 IU/ml penicillin G, 100 μg/ml streptomycin sulphate, 110 μg/ml pyruvic acid and 100 μg/ml L-glutamine). One day before collection, cells were induced with 5 mM sodiumbutyrate. Upon 80-90% of confluence, cells were scraped in phosphate buffered saline without Ca^2+ and Mg^2+ and collected by centrifugation at 1500×g for 10 min. The cells were homogenised in Tris-HCl 50 mM using an Ultraturrax homogenizer and centrifuged for 10 min at 23,500×g. The pellet was washed once by resuspension and rehomogenization and the final pellet was resuspended in Tris-HCl, divided in 1 ml aliquots and stored at −70° C.
(§3) Membranes were thawed and re-homogenized in incubation buffer (glycylglycine 25 mM, pH 8.0). In a total volume of 500 μl, 2-10 μg protein was incubated with [^3H]raulwolscine (NET-722) (New England Nuclear, USA) (1 nM final concentration) with or without competitor for 60 min at 25° C. followed by rapid filtration over GF/B filter using a Filtermate196 harvester (Packard, Meriden, Conn.). Filters were rinsed extensively with ice-cold rinsing buffer (Tris-HCl 50 mM pH 7.4). Filter-bound radioactivity was determined by scintillation counting in a Topcount (Packard, Meriden, Conn.) and results were expressed as counts per minute (cpm). Non-specific binding was determined in the presence of 1 μM oxymetazoline for hα2A- and hα2B receptors and 1 μM spiroxatrine for hα2C receptors.
(§4) Data from assays in the presence of compound were calculated as a percentage of total binding measured in the absence of test compound. Inhibition curves, plotting percent of total binding versus the log value of the concentration of the test compound, were automatically generated, and sigmoidal inhibition curves were fitted using non-linear regression. The pIC50 values of test compounds were derived from individual curves.

Assay [2] deals with T2, hα2C receptor (Homo sapiens, UniProt P18825).
T2 construct: expressed in transfected cells; host or cells: CHO cells
T2 sequence (P18825 1-462): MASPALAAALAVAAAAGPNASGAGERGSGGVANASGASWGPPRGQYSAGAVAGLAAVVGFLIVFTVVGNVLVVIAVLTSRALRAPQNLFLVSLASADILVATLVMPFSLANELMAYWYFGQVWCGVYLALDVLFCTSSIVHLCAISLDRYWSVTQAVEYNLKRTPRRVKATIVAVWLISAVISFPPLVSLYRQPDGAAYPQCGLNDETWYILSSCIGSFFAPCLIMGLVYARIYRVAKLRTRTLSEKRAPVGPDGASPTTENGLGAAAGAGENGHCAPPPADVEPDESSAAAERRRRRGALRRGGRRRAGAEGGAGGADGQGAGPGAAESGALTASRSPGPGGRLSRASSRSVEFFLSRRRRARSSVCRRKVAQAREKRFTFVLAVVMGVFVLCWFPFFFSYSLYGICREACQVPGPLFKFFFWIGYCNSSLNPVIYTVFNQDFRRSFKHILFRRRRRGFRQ
The experiment in a line: Radioligand binding experiment for hα2C receptor ([3H]-raulwolscine, CHO cell membranes). The note with it: [3H]-raulwolscine 1 nM, membranes of CHO cells transfected with human α2C receptor; read-out: pIC50 hα2C (converted). The protocol:
as §1, §2, §3, §4

The target of assay [3] is T3, h5-HT transporter (Homo sapiens, UniProt P31645).
T3 construct: Human platelet membranes (Oceanix Biosciences Corporation, Hanover, Md., USA) were thawed; tissue Oceanix Biosciences Corporation; host or cells: human platelet membranes
Description: Radioligand binding experiment for 5-HT transporter ([3H]paroxetine, human platelet membranes). Conditions: [3H]paroxetine 0.5 nM, read-out: pIC50 h5HTT (converted). The protocol:
as §1
Human platelet membranes (Oceanix Biosciences Corporation, Hanover, Md., USA) were thawed, diluted in buffer (Tris-HCl 50 mM, 120 mM NaCl and 5 mM KCl) and quickly (max 3 s) homogenised with an Ultraturrax homogenizer. In a total volume of 250 μL, 50-100 μg protein was incubated with [^3H]paroxetine (NET-869) (New England Nuclear, USA) (0.5 nM final concentration) with or without competitor for 60 min at 25° C. Incubation was stopped by rapid filtration of the incubation mixture over GF/B filters, pre-wetted with 0.1% polyethyleneamine, using a Filtermate 196 harvester (Packard, Meriden, Conn.). Filters were rinsed extensively with ice-cold buffer and radioactivity on the filters was counted in a Topcount liquid scintillation counter (Packard, Meriden, Conn.). Data were expressed as cpm. Imipramine (at 1 μM final concentration) was used to determine the non-specific binding.
as §4

Assay [4] addresses T4, hα2B receptor (Homo sapiens, UniProt P18089).
T4 construct: expressed in transfected cells; host or cells: CHO cells
T4 sequence (P18089 1-450): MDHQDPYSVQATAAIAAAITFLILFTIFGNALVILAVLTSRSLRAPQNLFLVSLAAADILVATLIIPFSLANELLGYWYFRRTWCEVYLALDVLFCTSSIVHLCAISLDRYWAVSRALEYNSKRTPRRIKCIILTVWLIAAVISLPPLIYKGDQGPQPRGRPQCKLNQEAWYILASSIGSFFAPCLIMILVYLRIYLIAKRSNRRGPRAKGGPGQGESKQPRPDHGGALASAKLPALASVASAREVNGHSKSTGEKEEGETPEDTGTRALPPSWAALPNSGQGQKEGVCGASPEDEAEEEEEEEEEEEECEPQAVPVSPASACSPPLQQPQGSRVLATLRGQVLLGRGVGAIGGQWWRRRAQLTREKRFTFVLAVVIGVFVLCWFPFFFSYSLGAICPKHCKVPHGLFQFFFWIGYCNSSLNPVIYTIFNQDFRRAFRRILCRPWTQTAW
The experiment in a line: Radioligand binding experiment for hα2B receptor ([3H]-raulwolscine, CHO cell membranes). The note with it: [3H]-raulwolscine 1 nM, membranes of CHO cells transfected with human α2B receptor; read-out: pIC50 hα2B (converted). The protocol: as §1, §2, §3, §4

T3 sequence (P31645 whole entry): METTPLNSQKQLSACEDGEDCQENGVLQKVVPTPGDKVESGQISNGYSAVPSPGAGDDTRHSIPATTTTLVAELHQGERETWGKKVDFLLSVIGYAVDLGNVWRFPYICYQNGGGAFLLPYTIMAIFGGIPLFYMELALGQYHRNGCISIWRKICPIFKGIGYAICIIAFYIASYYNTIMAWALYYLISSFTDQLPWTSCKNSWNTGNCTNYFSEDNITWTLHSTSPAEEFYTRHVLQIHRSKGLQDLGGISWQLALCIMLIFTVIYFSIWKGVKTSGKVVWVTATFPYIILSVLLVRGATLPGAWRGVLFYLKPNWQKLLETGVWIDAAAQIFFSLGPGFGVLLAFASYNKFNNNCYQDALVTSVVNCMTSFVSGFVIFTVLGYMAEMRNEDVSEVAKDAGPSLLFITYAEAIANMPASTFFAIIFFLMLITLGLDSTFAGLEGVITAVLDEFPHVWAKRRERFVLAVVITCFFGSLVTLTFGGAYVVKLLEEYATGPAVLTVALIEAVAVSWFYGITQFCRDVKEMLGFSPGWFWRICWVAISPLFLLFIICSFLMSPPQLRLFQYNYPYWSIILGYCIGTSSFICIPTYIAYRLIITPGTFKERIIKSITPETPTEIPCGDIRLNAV

On to `C/C(=C\c1ccccc1)CN1CCN(CC2ON=C3c4ccc(/C=N\O)cc4OCC32)CC1` (stereo not drawn) [Compound 11, 3-[4-(2-Methyl-3-phenyl-allyl)-piperazin-1-ylmethyl]-3a,4-dihydro-3H -chromeno[4,3-c]isoxazole-7-carbaldehyde oxime], for which the IC50 is 5.01 nM in assay [1], 1.58 nM in assay [2] and 5.01 nM in assay [3].

In the case of `CC(=O)NCc1ccc2c(c1)OCC1C2=NOC1CN1CCN(C/C(C)=C/c2ccccc2)CC1` (stereo not drawn) [Compound 15, N-{3-[4-(2-Methyl-3-phenyl-allyl)-piperazin-1-ylmethyl]-3a,4-dihydro-3H -chromeno[4,3-c]isoxazol-7-ylmethyl}-acetamide], the values for the IC50 in assay [1] and in assay [2] were 5.01 nM and 0.794 nM, respectively.

For the molecule `COc1cc2c(cc1CN1CCC(C)CC1)OCC1C2=NOC1CN1CCN(CC(C)=Cc2ccc(F)cc2)CC1` (stereo not drawn) [Compound 25], the IC50 in assay [1] is 6.31 nM; in assay [4] it was 2.51 nM; in assay [2], 0.794 nM; in assay [3], 31.6 nM.

Regarding `COc1cc2c(cc1COc1ccccc1)OCC1C2=NOC1CN1CCN(C/C(C)=C/c2ccccc2)CC1` (stereo not drawn) [Compound 8, 8-Methoxy-3-[4-(2-methyl-3-phenyl-allyl)-piperazin-1-ylmethyl]-7-phenoxymethyl-3a,4-dihydro-3H-chromeno[4,3-c]isoxazole], the IC50 in assay [1] was 25.1 nM; in assay [2], 20 nM; in assay [3] it was 200 nM.

As for `COc1cc2c(cc1CO)OCC1C2=NOC1CN1CCN(C/C(C)=C/c2ccccc2)CC1` (stereo not drawn) [Compound 4, {8-Methoxy-3-[4-(2-methyl-3-phenyl-allyl)-piperazin-1-ylmethyl]-3a,4-dihydro-3H-chromeno[4,3-c]isoxazol-7-yl}-methanol], the IC50 in assay [1] is 3.98 nM; in assay [2], 1.58 nM; in assay [3] it was 100 nM.

In the case of `COc1cc2c(cc1CN1CCOCC1)OCC1C2=NOC1CN1CCN(C/C(C)=C/c2ccccc2)CC1` (stereo not drawn) [Compound 10, 8-Methoxy-3-[4-(2-methyl-3-phenyl-allyl)-piperazin-1-ylmethyl]-7-morpholin-4-ylmethyl-3a,4-dihydro-3H-chromeno[4,3-c]isoxazole], the IC50 was 6.31 nM in assay [1], 3.98 nM in assay [4], 0.316 nM in assay [2] and 25.1 nM in assay [3].

With `CON=Cc1ccc2c(c1)OCC1C2=NOC1CN1CCN(CC(C)=Cc2ccccc2)CC1` (stereo not drawn) [Compound 12, 3-[4-(2-Methyl-3-phenyl-allyl)-piperazin-1-ylmethyl]-3a,4-dihydro-3H -chromeno[4,3-c]isoxazole-7-carbaldehyde O-methyl-oxime], the values for the IC50 in assay [1], in assay [2] and in assay [3] were 6.31 nM, 3.98 nM and 100 nM, respectively.

As for `COc1cc2c(cc1-c1ccccc1)OCC1C2=NOC1CN1CCN(C/C(C)=C/c2ccccc2)CC1` (stereo not drawn) [Compound 17, 8-Methoxy-3-[4-(2-methyl-3-phenyl-allyl)-piperazin-1-ylmethyl]-7-phenyl-3a,4-dihydro-3H-chromeno[4,3-c]isoxazole], the IC50 in assay [1] was 15.8 nM; in assay [2] it was 12.6 nM; in assay [3] it was 158 nM.

As to `COc1cc2c(cc1C)OCC1C2=NOC1CN1CCN(C/C(C)=C/c2ccccc2)CC1` (stereo not drawn) [Compound 2, 8-Methoxy-7-methyl-3-[4-(2-methyl-3-phenyl-allyl)-piperazin-1-ylmethyl]-3a,4-dihydro-3H-chromeno[4,3-c]isoxazole], the IC50 in assay [1] was 2 nM; in assay [2], 1.58 nM; in assay [3], 20 nM.

Regarding `COc1cc2c(cc1COC(C)=O)OCC1C2=NOC1CN1CCN(C/C(C)=C/c2ccccc2)CC1` (stereo not drawn) [Compound 7, Acetic acid 8-methoxy-3-[4-(2-methyl-3-phenyl-allyl)-piperazin-1-ylmethyl]-3a,4-dihydro-3H-chromeno[4,3-c]isoxazol-7-ylmethyl ester], the IC50 was 3.98 nM in assay [1], 1.26 nM in assay [2] and 12.6 nM in assay [3].

In the case of `C/C(=C\c1ccccc1)CN1CCN(CC2ON=C3c4ccc(C=O)cc4OCC32)CC1` (stereo not drawn) [Compound 19], the results for the IC50 in assay [1] and in assay [2] were 5.01 nM and 0.794 nM, respectively.

Turning to `CCNC(=O)c1cc2c(cc1OC)C1=NOC(CN3CCN(C/C(C)=C/c4ccccc4)CC3)C1CO2` (stereo not drawn) [Compound 16, 8-Methoxy-3-[4-(2-methyl-3-phenyl-allyl)-piperazin-1-ylmethyl]-3a,4-dihydro-3H -chromeno[4,3-c]isoxazole-7-carboxylic acid ethylamide], the IC50 is 3.16 nM in assay [1], 1.58 nM in assay [2] and 126 nM in assay [3].

The values above are taken from US7465741B2, “C-substituted tricyclic isoxazoline derivatives and their use as anti-depressants” (Janssen Pharmaceutica N.V., priority 2002, dated 2008).
